Measured values from US20260151345A1, “FAST-DISSOLVING DOSAGE FORMS AND USES THEREOF” (Astrocyte Pharmaceuticals, Inc., priority 2022, published 2026).
Several values for one entry are separate records, joined by “and”; a condition that tells them apart may be missing. Equal entries are not always repeated. Where two headings read alike, the source gives them in different places.

How the values were obtained:
male Beagle dogs = experiment: Tolerability (cageside observations) after ODT dose; format: in vivo; conditions: 50.75 mg/dose via ODT
Procedure: (§1) Dosing occurred at 50.75 mg/dose. The ODT was placed on the dog's tongue and the mouth held shut for approximately 30 seconds to allow the material to dissolve. In each case, the tablet quickly formed a white paste that was adhered to the tongue and was not swallowed whole.
Cageside Observations, General signs of toxicity including fecal and urine quality, were completed approximately 1 hour post dose on dose days.

[1] = Pharmacokinetics / bioavailability after oral disintegrating tablet dose; format: in vivo, male Beagle dogs; conditions: for AUC(0-t) / AUC(0-inf) / Cmax / Tmax / half-life: po, 50.75 mg
Procedure: The purpose of this study was to evaluate the bioavailability of Compound A following administration of the ODT formulation. Animals were administered Compound A, as described in the following table.
as §1
Whole blood samples were collected from all animals as noted in the following table for determination of test article exposure.
• Method: LC-MS/MS • Column: Restek Raptor ARC-18 2.7 μm (30×2.1 mm) • Mobile Phase A: 0.1% Formic Acid in Water • Mobile Phase B: 0.1% Formic Acid in Acetonitrile • Ionization: (±) ESI with Ion Spray • Analyte: Compound A • MRM: m/z 324.200/182.200 amu • Internal Standard: Labetalol • MRM: m/z 329.200/294.200 amu • Assay Range (LLOQ and ULOQ): 1-5000 ng/mL
Pharmacokinetic concentration-time data for Compound A was analyzed using non-compartmental methods (Phoenix® WinNonlin® Version 8.1) with nominal sampling times and dosages. The following parameters were calculated whenever possible and as data allowed: Volume of distribution, Clearance, tl/2, C0/Cmax, Tmax, % F. and AUC. Additional parameters may have been calculated as appropriate. Descriptive statistics were generated using Phoenix WinNonlin.

[2] = single ODT dose 50.75 mg/dose, male Beagle dogs

CSc1nc(N)c2ncn([C@H]3[C@H](O)[C@H](O)[C@]4(CO)C[C@H]34)c2n1 [Compound A]
Tolerability (male Beagle dogs): well tolerated | Compound A Plasma Concentration, individual animals ([1]; 0.25 hr postdose, ODT 50.75 mg/dose, male Beagle dogs): 356 ng/mL and 309 ng/mL and 352 ng/mL and 114 ng/mL | Compound A Plasma Concentration, individual animals ([1]; 0.5 hr postdose, ODT 50.75 mg/dose, male Beagle dogs): 2300 ng/mL and 1840 ng/mL and 1690 ng/mL and 622 ng/mL | Compound A Plasma Concentration, individual animals ([1]; 1 hr postdose, ODT 50.75 mg/dose, male Beagle dogs): 2370 ng/mL and 2510 ng/mL and 1810 ng/mL | Compound A Plasma Concentration, individual animals ([1]; 2 hr postdose, ODT 50.75 mg/dose, male Beagle dogs): 1990 ng/mL and 2070 ng/mL and 1530 ng/mL | Compound A Plasma Concentration, individual animals ([1]; 4 hr postdose, ODT 50.75 mg/dose, male Beagle dogs): 1100 ng/mL and 1160 ng/mL and 798 ng/mL | Compound A Plasma Concentration, individual animals ([1]; 8 hr postdose, ODT 50.75 mg/dose, male Beagle dogs): 319 ng/mL and 413 ng/mL and 248 ng/mL | Compound A Plasma Concentration, individual animals ([1]; 24 hr postdose, ODT 50.75 mg/dose, male Beagle dogs): 132 ng/mL and 48.3 ng/mL and 119 ng/mL and 28.8 ng/mL | Percent F, Mean ([1]; N=4, single ODT dose, 4.66 mg/kg dose used for calculation, estimated value): 114% | concentration at 0.25 h ([1]; male, Beagle, dog, plasma, oral, 50.75 mg/dose, 0.25 hr postdose, N=4, ODT 50.75 mg/dose, male Beagle dogs, read-out: Compound A Plasma Concentration, Mean): 283 ng/mL | concentration at 0.5 h ([1]; male, Beagle, dog, plasma, oral, 50.75 mg/dose, 0.5 hr postdose, N=4, ODT 50.75 mg/dose, male Beagle dogs, read-out: Compound A Plasma Concentration, Mean): 1610 ng/mL | concentration at 1 h ([1]; male, Beagle, dog, plasma, oral, 50.75 mg/dose, 1 hr postdose, N=4, ODT 50.75 mg/dose, male Beagle dogs, read-out: Compound A Plasma Concentration, Mean): 2190 ng/mL | concentration at 1 h ([1]; male, Beagle, dog, plasma, oral, 50.75 mg/dose, 1 hr postdose, ODT 50.75 mg/dose, male Beagle dogs, read-out: Compound A Plasma Concentration, individual animals): 2080 ng/mL | concentration at 2 h ([1]; male, Beagle, dog, plasma, oral, 50.75 mg/dose, 2 hr postdose, N=4, ODT 50.75 mg/dose, male Beagle dogs, read-out: Compound A Plasma Concentration, Mean): 1810 ng/mL | concentration at 2 h ([1]; male, Beagle, dog, plasma, oral, 50.75 mg/dose, 2 hr postdose, ODT 50.75 mg/dose, male Beagle dogs, read-out: Compound A Plasma Concentration, individual animals): 1650 ng/mL | concentration at 4 h ([1]; male, Beagle, dog, plasma, oral, 50.75 mg/dose, 4 hr postdose, N=4, ODT 50.75 mg/dose, male Beagle dogs, read-out: Compound A Plasma Concentration, Mean): 1010 ng/mL | concentration at 4 h ([1]; male, Beagle, dog, plasma, oral, 50.75 mg/dose, 4 hr postdose, ODT 50.75 mg/dose, male Beagle dogs, read-out: Compound A Plasma Concentration, individual animals): 964 ng/mL | concentration at 8 h ([1]; male, Beagle, dog, plasma, oral, 50.75 mg/dose, 8 hr postdose, N=4, ODT 50.75 mg/dose, male Beagle dogs, read-out: Compound A Plasma Concentration, Mean): 354 ng/mL | concentration at 8 h ([1]; male, Beagle, dog, plasma, oral, 50.75 mg/dose, 8 hr postdose, ODT 50.75 mg/dose, male Beagle dogs, read-out: Compound A Plasma Concentration, individual animals): 434 ng/mL | concentration at 24 h ([1]; male, Beagle, dog, plasma, oral, 50.75 mg/dose, 24 hr postdose, N=4, ODT 50.75 mg/dose, male Beagle dogs, read-out: Compound A Plasma Concentration, Mean): 82 ng/mL | AUC(0-t) ([1]; male, Beagle, dog, plasma, N=4, single ODT dose 50.75 mg/dose, male Beagle dogs, read-out: AUC0-24, Mean): 12200 ng·h/mL | AUC(0-inf) ([1]; male, Beagle, dog, plasma, N=4, single ODT dose 50.75 mg/dose, male Beagle dogs, read-out: AUCinf, Mean): 13000 ng·h/mL | Cmax ([1]; male, Beagle, dog, plasma, N=4, single ODT dose 50.75 mg/dose, male Beagle dogs, read-out: Cmax, Mean): 2250 ng/mL | Tmax ([1]; male, Beagle, dog, plasma, N=4, single ODT dose 50.75 mg/dose, male Beagle dogs, read-out: Tmax, Mean): 52.8 min | half-life ([1]; male, Beagle, dog, plasma, N=4, single ODT dose 50.75 mg/dose, male Beagle dogs, read-out: t1/2, Mean (converted)): 331 min | AUC(0-t) ([1]; male, Beagle, dog, plasma, single ODT dose 50.75 mg/dose, male Beagle dogs, read-out: AUC0-24, individual animals): 9020 ng·h/mL | AUC(0-inf) ([1]; male, Beagle, dog, plasma, single ODT dose 50.75 mg/dose, male Beagle dogs, read-out: AUCinf, individual animals): 9200 ng·h/mL | Cmax ([1]; male, Beagle, dog, plasma, single ODT dose 50.75 mg/dose, male Beagle dogs, read-out: Cmax, individual animals): 1810 ng/mL | Tmax ([1]; male, Beagle, dog, plasma, single ODT dose 50.75 mg/dose, male Beagle dogs, read-out: Tmax, individual animals): 60 min | half-life ([1]; male, Beagle, dog, plasma, single ODT dose 50.75 mg/dose, male Beagle dogs, read-out: t1/2, individual animals (converted)): 265 min | AUC0-24, individual animals [1, 2]: 13300 ng·h/mL and 12400 ng·h/mL and 14300 ng·h/mL | AUCinf, individual animals [1, 2]: 14700 ng·h/mL and 12700 ng·h/mL and 15300 ng·h/mL | Cmax, individual animals [1, 2]: 2300 ng/mL and 2370 ng/mL and 2510 ng/mL | Tmax, individual animals [1, 2]: 30 min | t1/2, individual animals [1, 2]: 7.51 h and 4.33 h and 5.79 h | Percent F, individual animals ([1]; single ODT dose, 4.66 mg/kg dose used for calculation, estimated from nominal dose and estimated AUCinf, 4.66 mg/kg): 80.5% and 116% (2×) and 143%
